Experimental data: patent US9409905B2, “Antibacterial compounds and methods for use” (PTC THERAPEUTICS, INC., priority 2011, dated 2016)
Converted amounts (≈) assume the structure as drawn. Like-named read-outs stand apart in the source and are kept apart here.

Key:
[1] = system: Acinetobacter baumannii (A. baumannii) BAA747; assay: Antibacterial activity, MIC (Table 4); type: cell-based
Method in brief: (§1)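 MIC in μg/mL by microbroth dilution, scored as the lowest level that suppresses visible growth.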

[2] = system: Klebsiella pneumoniae (K. pneumoniae) 35657; assay: Antibacterial activity, MIC (Table 4); type: cell-based
Method in brief: as §1

[3] = system: Staphylococcus aureus (S. aureus) 29213; assay: Antibacterial activity, microbroth dilution MIC (Table 1); type: cell-based
Method in brief: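 Each strain is exposed to test compound in a microbroth dilution series; visible growth is scored macroscopically, and the lowest growth-free concentration is recorded as MIC in μg/mL.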

[4] = system: Escherichia coli (E. coli) BAS849; assay: as above; type: cell-based
Method in brief: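 Read-out: visual absence of growth. The lowest concentration meeting this gives the MIC, expressed in μg/mL, with microbroth dilution as the method.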

E. coli 25922 = assay: as above; type: cell-based, Escherichia coli
Method in brief: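 Broth microdilution against S. aureus 29213, E. coli 25922 and hypersensitive E. coli BAS849. MIC in μg/mL is the lowest drug concentration preventing macroscopically visible growth under test conditions.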

E. coli LZ3111 = assay: Antibacterial activity, MIC, quinolone resistant strain (Table 2); type: cell-based; settings: Escherichia coli, LZ3111, read-out: MIC LZ3111
Method in brief: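 Broth microdilution. Read-out: MIC in μg/mL, taken as lowest concentration with no macroscopically visible growth.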

[5] = system: Pseudomonas aeruginosa (P. aeruginosa) 27853; assay: Antibacterial activity, MIC (Table 5); type: cell-based
Method in brief: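 Microbroth dilution; MIC (μg/mL) = lowest concentration with no macroscopically visible growth.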

K. pneumoniae MXX1232 = assay: Antibacterial activity, MIC, resistant strain (Table 4); type: cell-based; settings: Klebsiella pneumoniae
Method in brief: as §1

A. baumannii MXX2240 = assay: as above; type: cell-based; settings: Acinetobacter baumannii
Method in brief: as §1

[6] = A. baumannii BAA747, read-out: MIC, BAA747
[7] = K. pneumoniae 35657, read-out: MIC, 35657
[8] = microbroth dilution, Gram-positive S. aureus 29213, read-out: MIC, 29213
[9] = microbroth dilution, super sensitive Gram-negative E. coli BAS849, read-out: MIC, BAS849
[10] = Escherichia coli, microbroth dilution, control Gram-negative E. coli 25922 strain, read-out: MIC, 25922
[11] = P. aeruginosa 27853, read-out: MIC, 27853
[12] = MXX1232, resistant K. pneumoniae MMX1232, multi-drug resistant clinical isolate, read-out: MIC, MMX1232
[13] = MXX2240, resistant A. baumannii MMX2240, multi-drug resistant clinical isolate, read-out: MIC, MMX2240

Structure (SMILES) | MIC [1, 6] [µg/mL] | MIC [2, 7] [µg/mL] | MIC [3, 8] [µg/mL] | MIC [4, 9] [µg/mL] | MIC (E. coli 25922; [10]) [µg/mL] | MIC (E. coli LZ3111) [µg/mL] | MIC [5, 11] [µg/mL] | MIC (K. pneumoniae MXX1232; [12]) [µg/mL] | MIC (A. baumannii MXX2240; [13]) [µg/mL] | MIC ([1]; BAA747, read-out: MIC, BAA747) [µg/mL] | MIC ([2]; read-out: MIC, 35657) [µg/mL] | MIC ([3]; read-out: MIC, 29213) [µg/mL] | MIC ([4]; read-out: MIC, BAS849) [µg/mL] | MIC (E. coli 25922; Escherichia coli, 25922, read-out: MIC, 25922) [µg/mL] | MIC ([5]; read-out: MIC, 27853) [µg/mL] | MIC (K. pneumoniae MXX1232; MXX1232, read-out: MIC, MMX1232) [µg/mL] | MIC (A. baumannii MXX2240; MXX2240, read-out: MIC, MMX2240) [µg/mL]
CCc1c(-c2ccc3cc(CN(C)C)[nH]c3c2)[nH]c(=O)c(C(=O)O)c1O.Cl [Cpd 441, 6-(2-((dimethylamino)methyl)-1H-indol-6-yl)-5-ethyl-4-hydroxy-2-oxo-1,2-dihydropyridine-3-carboxylic acid hydrochloride] | 1 to 3.5 | < 1 | 1 to 3.5 | < 1 | < 1 | 12.5 to 150 | 12.5 to 150 | 12.5 to 150 | 3.5 to 12.5 | – | – | – | – | – | – | – | –
CCCc1ccc2cc(-c3[nH]c(=O)c(C(=O)O)c(O)c3CC)n(C)c2c1 [Cpd 410, 5-ethyl-4-hydroxy-6-(1-methyl-6-propyl-1H-indol-2-yl)-2-oxo-1,2-dihydropyridine-3-carboxylic acid] | 12.5 to 150 (≈ 35.3 to 423 µM) | 12.5 to 150 (≈ 35.3 to 423 µM) | 3.5 to 12.5 (≈ 9.88 to 35.3 µM) | 1 to 3.5 (≈ 2.82 to 9.88 µM) | 12.5 to 150 (≈ 35.3 to 423 µM) | 12.5 to 150 (≈ 35.3 to 423 µM) | 12.5 to 150 (≈ 35.3 to 423 µM) | 12.5 to 150 (≈ 35.3 to 423 µM) | 12.5 to 150 (≈ 35.3 to 423 µM) | – | – | – | – | – | – | – | –
Cc1c(-c2ccc3c(c2)cc2n3CC(N(C)C)C2)[nH]c(=O)c(C(=O)O)c1O.Cl (stereo not drawn) [Cpd 417, 6-(2-(dimethylamino)-2,3-dihydro-1H-pyrrolo[1,2-a]indol-7-yl)-4-hydroxy-5-methyl-2-oxo-1,2-dihydropyridine-3-carboxylic acid hydrochloride] | 3.5 to 12.5 | 12.5 to 150 | 12.5 to 150 | 1 to 3.5 | 12.5 to 150 | < 1 | 12.5 to 150 | 12.5 to 150 | < 1 | – | – | – | – | – | – | – | –
CCc1ccc2c(c1)cc(-c1[nH]c(=O)c(C(=O)O)c(O)c1CC)n2C [Cpd 407, 5-ethyl-6-(5-ethyl-1-methyl-1H-indol-2-yl)-4-hydroxy-2-oxo-1,2-dihydropyridine-3-carboxylic acid] | 12.5 to 150 (≈ 36.7 to 441 µM) | 12.5 to 150 (≈ 36.7 to 441 µM) | 1 to 3.5 (≈ 2.94 to 10.3 µM) | 1 to 3.5 (≈ 2.94 to 10.3 µM) | 12.5 to 150 (≈ 36.7 to 441 µM) | 12.5 to 150 (≈ 36.7 to 441 µM) | 12.5 to 150 (≈ 36.7 to 441 µM) | 12.5 to 150 (≈ 36.7 to 441 µM) | 12.5 to 150 (≈ 36.7 to 441 µM) | – | – | – | – | – | – | – | –
CCc1cc(C(=O)O)c(=O)[nH]c1-c1cnc2c(c1)ncn2C [Cpd 52, 5-ethyl-6-(3-methyl-3H-imidazo[4,5-b]pyridin-6-yl)-2-oxo-1,2-dihydropyridine-3-carboxylic acid] | 12.5 to 150 (≈ 41.9 to 503 µM) | 12.5 to 150 (≈ 41.9 to 503 µM) | 12.5 to 150 (≈ 41.9 to 503 µM) | 12.5 to 150 (≈ 41.9 to 503 µM) | 12.5 to 150 (≈ 41.9 to 503 µM) | 12.5 to 150 (≈ 41.9 to 503 µM) | 12.5 to 150 (≈ 41.9 to 503 µM) | 12.5 to 150 (≈ 41.9 to 503 µM) | 12.5 to 150 (≈ 41.9 to 503 µM) | – | – | – | – | – | – | – | –
CCc1c(-c2ccc3c4c([nH]c3c2)CN(C)CC4)[nH]c(=O)c(C(=O)O)c1O [Cpd 446, 5-ethyl-4-(hydroxy)-6-(2-methyl-2,3,4,9-tetrahydro-1H-pyrido[3,4-b]indol-7-yl)-2-oxo-1,2-dihydropyridine-3-carboxylic acid] | – | – | – | – | – | 1 to 3.5 (≈ 2.72 to 9.53 µM) | – | – | – | 3.5 to 12.5 (≈ 9.53 to 34 µM) | < 1 | 12.5 to 150 (≈ 34 to 408 µM) | < 1 | 1 to 3.5 (≈ 2.72 to 9.53 µM) | 3.5 to 12.5 (≈ 9.53 to 34 µM) | 12.5 to 150 (≈ 34 to 408 µM) | 12.5 to 150 (≈ 34 to 408 µM)
CCc1c(-c2ccc3cc[nH]c3n2)[nH]c(=O)c(C(=O)O)c1O [Cpd 433, 5-ethyl-4-hydroxy-2-oxo-6-(1H-pyrrolo[2,3-b]pyridin-6-yl)-1,2-dihydropyridine-3-carboxylic acid] | 3.5 to 12.5 (≈ 11.7 to 41.8 µM) | 3.5 to 12.5 (≈ 11.7 to 41.8 µM) | 12.5 to 150 (≈ 41.8 to 501 µM) | < 1 | 12.5 to 150 (≈ 41.8 to 501 µM) | 12.5 to 150 (≈ 41.8 to 501 µM) | 12.5 to 150 (≈ 41.8 to 501 µM) | 12.5 to 150 (≈ 41.8 to 501 µM) | 12.5 to 150 (≈ 41.8 to 501 µM) | – | – | – | – | – | – | – | –
CCc1c(-c2ccc3c4c([nH]c3c2)CNCC4)[nH]c(=O)c(C(=O)O)c1O [Cpd 445, 5-ethyl-4-hydroxy-2-oxo-6-(2,3,4,9-tetrahydro-1H-pyrido[3,4-b]indol-7-yl)-1,2-dihydropyridine-3-carboxylic acid] | 12.5 to 150 (≈ 35.4 to 424 µM) | 3.5 to 12.5 (≈ 9.9 to 35.4 µM) | 12.5 to 150 (≈ 35.4 to 424 µM) | 3.5 to 12.5 (≈ 9.9 to 35.4 µM) | 12.5 to 150 (≈ 35.4 to 424 µM) | 12.5 to 150 (≈ 35.4 to 424 µM) | 12.5 to 150 (≈ 35.4 to 424 µM) | 12.5 to 150 (≈ 35.4 to 424 µM) | 12.5 to 150 (≈ 35.4 to 424 µM) | – | – | – | – | – | – | – | –
CCc1ccc2cc(-c3[nH]c(=O)c(C(=O)O)c(O)c3CC)n(C)c2c1 [Cpd 408, 5-ethyl-6-(6-ethyl-1-methyl-1H-indol-2-yl)-4-hydroxy-2-oxo-1,2-dihydropyridine-3-carboxylic acid] | 12.5 to 150 (≈ 36.7 to 441 µM) | 12.5 to 150 (≈ 36.7 to 441 µM) | 1 to 3.5 (≈ 2.94 to 10.3 µM) | 1 to 3.5 (≈ 2.94 to 10.3 µM) | 12.5 to 150 (≈ 36.7 to 441 µM) | 12.5 to 150 (≈ 36.7 to 441 µM) | 12.5 to 150 (≈ 36.7 to 441 µM) | 12.5 to 150 (≈ 36.7 to 441 µM) | 12.5 to 150 (≈ 36.7 to 441 µM) | – | – | – | – | – | – | – | –
